Test results published in PubChem BioAssay AID248 (DTP/NCI, 2004).
“And” between values parts separate entries of the source, which are not always exact repeats. Equal entries are not always repeated. Toxic doses and inconclusive results are not listed. Cut-off read from the data, not from the text of the source: active = T/C of 150% or more; inactive = T/C below 125%.

Test system: L1210 leukemia ip in BDF1 mice, survival T/C
Assay: NCI In Vivo Anticancer Drug Screen. Data for tumor model L1210 Leukemia (intraperitoneal) in B6D2F1 (BDF1) mice
Conditions: endpoint: mean survival time, higher = longer survival
Method in brief: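 Transplantable tumor model; survival measured in treated vs vehicle control mice. Value = treated/control.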

[1] = dose: 100.0 mg/kg/injection, schedule: Q01DX001 (ip), vehicle: saline with Tween-80
[2] = dose: 100.0 mg/kg/injection, schedule: Q01DX009 (ip), vehicle: saline with Tween-80
[3] = dose: 100.0 mg/kg/injection, schedule: Q04DX002 (ip), vehicle: saline with Tween-80
[4] = dose: 200.0 mg/kg/injection, schedule: Q01DX001 (ip), vehicle: saline with Tween-80
[5] = dose: 200.0 mg/kg/injection, schedule: Q01DX009 (ip), vehicle: saline with Tween-80
[6] = dose: 200.0 mg/kg/injection, schedule: Q04DX002 (ip), vehicle: saline with Tween-80
[7] = dose: 400.0 mg/kg/injection, schedule: Q01DX001 (ip), vehicle: saline with Tween-80
[8] = dose: 400.0 mg/kg/injection, schedule: Q04DX002 (ip), vehicle: saline with Tween-80
[9] = dose: 100.0 mg/kg/injection, schedule: Q01DX009 (ip), vehicle: Klucel (hydroxypropylcellulose) (HPC)
[10] = dose: 100.0 mg/kg/injection, schedule: Q04DX003 (ip), vehicle: Klucel (hydroxypropylcellulose) (HPC)
[11] = dose: 200.0 mg/kg/injection, schedule: Q01DX009 (ip), vehicle: Klucel (hydroxypropylcellulose) (HPC)
[12] = dose: 200.0 mg/kg/injection, schedule: Q04DX003 (ip), vehicle: Klucel (hydroxypropylcellulose) (HPC)
[13] = dose: 400.0 mg/kg/injection, schedule: Q04DX003 (ip), vehicle: Klucel (hydroxypropylcellulose) (HPC)
[14] = dose: 100.0 mg/kg/injection, schedule: Q01DX001 (ip), vehicle: carboxymethylcellulose (CMC)
[15] = dose: 200.0 mg/kg/injection, schedule: Q01DX001 (ip), vehicle: carboxymethylcellulose (CMC)
[16] = dose: 400.0 mg/kg/injection, schedule: Q01DX001 (ip), vehicle: carboxymethylcellulose (CMC)
[17] = dose: 400.0 mg/kg/injection, schedule: Q01DX009 (ip), vehicle: saline with Tween-80
[18] = dose: 50.0 mg/kg/injection, schedule: Q01DX001 (ip), vehicle: saline
[19] = dose: 100.0 mg/kg/injection, schedule: Q01DX001 (ip), vehicle: saline
[20] = dose: 200.0 mg/kg/injection, schedule: Q01DX001 (ip), vehicle: saline
[21] = dose: 400.0 mg/kg/injection, schedule: Q01DX001 (ip), vehicle: saline
[22] = dose: 400.0 mg/kg/injection, schedule: Q01DX009 (ip), vehicle: Klucel (hydroxypropylcellulose) (HPC)

Measured: T/C

O=C(NC(=S)Nc1ccc2c(c1)C(=O)c1ccccc1C2=O)c1cccc(Br)c1
inactive: dose: 50.0 mg/kg/injection, schedule: Q01DX009 (ip), vehicle: saline with Tween-80 98 % of control | [1] 96 % of control | [2] 98 % of control and 92 % of control | [3] 96 % of control and 97 % of control | [4] 93 % of control | [5] 97 % of control and 98 % of control | [6] 94 % of control and 103 % of control | [7] 103 % of control | [8] 96 % of control and 97 % of control

CC(NC(=O)Oc1ccccc1)Oc1ccccc1 (centres undefined)
inactive: dose: 100.0 mg/kg/injection, schedule: Q04DX003 (ip), vehicle: saline with Tween-80 96 % of control | dose: 200.0 mg/kg/injection, schedule: Q04DX003 (ip), vehicle: saline with Tween-80 101 % of control | dose: 400.0 mg/kg/injection, schedule: Q04DX003 (ip), vehicle: saline with Tween-80 96 % of control

CS(=O)(=O)OC[C@@H]1C2C=CC(C2)[C@@H]1COS(C)(=O)=O
inactive: dose: 50.0 mg/kg/injection, schedule: Q01DX009 (ip), vehicle: Klucel (hydroxypropylcellulose) (HPC) 107 % of control | [9] 100 % of control | [10] 98 % of control | [11] 104 % of control | [12] 94 % of control | [13] 107 % of control

Cc1ccc(S(=O)(=O)N(CCCc2c(C)nc(N)nc2Cl)c2ccccc2)cc1
inactive: dose: 100.0 mg/kg/injection, schedule: Q01DX001 (ip), vehicle: Klucel (hydroxypropylcellulose) (HPC) 86 % of control | dose: 400.0 mg/kg/injection, schedule: Q01DX001 (ip), vehicle: Klucel (hydroxypropylcellulose) (HPC) 93 % of control

CC(C)c1ccc(/C=C/C(=O)O)cc1
inactive: dose: 50.0 mg/kg/injection, schedule: Q01DX001 (ip), vehicle: carboxymethylcellulose (CMC) 108 % of control | [14] 97 % of control | [15] 92 % of control | [16] 101 % of control

Cc1cccc[n+]1Cc1ccccc1
inactive: dose: 9.38 mg/kg/injection, schedule: Q01DX001 (ip), vehicle: saline 100 % of control | dose: 18.75 mg/kg/injection, schedule: Q01DX001 (ip), vehicle: saline 97 % of control | dose: 37.5 mg/kg/injection, schedule: Q01DX001 (ip), vehicle: saline 101 % of control

CCCCOc1ccc(C=Nc2ccc(CC)cc2)cc1
inactive: [2] 94 % of control | [5] 102 % of control | [17] 97 % of control

Cc1cc([N+](=O)[O-])cc(C)c1N=CN(C)C
inactive: [18] 107 % of control | [19] 105 % of control | [20] 122 % of control | [21] 104 % of control

COc1ccc(OC)c(NC(=O)OCCOc2ccccc2)c1
inactive: [2] 104 % of control | [5] 107 % of control | [17] 100 % of control

CC1CCC(C(C)C)C(OC(=O)Nc2ccc(S(=O)(=O)N(C)C)cc2)C1 (centres undefined)
inactive: [19] 94 % of control | [20] 89 % of control | [21] 91 % of control

C#CC(C)OCC(C)OC(C)=O (centres undefined)
inactive: dose: 25.0 mg/kg/injection, schedule: Q01DX009 (ip), vehicle: acetone 95 % of control | dose: 50.0 mg/kg/injection, schedule: Q01DX009 (ip), vehicle: acetone 94 % of control | dose: 100.0 mg/kg/injection, schedule: Q01DX009 (ip), vehicle: acetone 99 % of control | dose: 100.0 mg/kg/injection, schedule: Q04DX003 (ip), vehicle: acetone 100 % of control | dose: 150.0 mg/kg/injection, schedule: Q01DX009 (ip), vehicle: saline 115 % of control | dose: 225.0 mg/kg/injection, schedule: Q01DX009 (ip), vehicle: saline 95 % of control | dose: 335.0 mg/kg/injection, schedule: Q01DX009 (ip), vehicle: saline 93 % of control

NC(=S)N/N=C/c1ccc([N+](=O)[O-])cc1
inactive: dose: 12.5 mg/kg/injection, schedule: Q01DX001 (ip), vehicle: saline with Tween-80 95 % of control | dose: 25.0 mg/kg/injection, schedule: Q01DX001 (ip), vehicle: saline with Tween-80 95 % of control | dose: 50.0 mg/kg/injection, schedule: Q01DX001 (ip), vehicle: saline with Tween-80 91 % of control

Cc1cccc(N2CCN(C(=S)c3ccccc3)CC2)c1
inactive: [19] 93 % of control | [20] 93 % of control | [21] 98 % of control

Nc1nc(=O)n(C2OC(CO)C(O)C2O)c2ccccc12 (centres undefined)
inactive: [19] 101 % of control | [20] 101 % of control | [21] 101 % of control

COc1cccc(CNc2cccc([N+](=O)[O-])c2)c1OC
inactive: [9] 95 % of control | [10] 102 % of control | [11] 97 % of control | [12] 96 % of control | [22] 95 % of control | [13] 95 % of control

C#CC(C)(C)NC(=O)NC(C)(C)C
inactive: dose: 100.0 mg/kg/injection, schedule: Q04DX002 (ip), vehicle: gum acacia 112 % of control | dose: 200.0 mg/kg/injection, schedule: Q04DX002 (ip), vehicle: gum acacia 91 % of control | dose: 400.0 mg/kg/injection, schedule: Q04DX002 (ip), vehicle: gum acacia 102 % of control

c1ccc(N/N=C2/CSCc3ccccc32)cc1
inactive: [1] 97 % of control | [4] 95 % of control | [7] 106 % of control

O=C(O)c1ccc(Br)cc1O
inactive: [14] 98 % of control | [15] 104 % of control | [16] 95 % of control

COc1cccc(CNc2ccc(C)cc2C)c1OC
inactive: [9] 100 % of control | [10] 92 % of control | [11] 107 % of control | [12] 91 % of control | [22] 109 % of control | [13] 97 % of control

Cc1ccc(N=Cc2cc(Br)ccc2O)cc1Cl
inactive: [3] 107 % of control | [6] 107 % of control | [8] 96 % of control

Cc1ccc(S(=O)(=O)N(Cc2cccc([N+](=O)[O-])c2)c2ccc(C(=O)O)cc2)cc1
inactive: dose: 100.0 mg/kg/injection, schedule: Q04DX002 (ip), vehicle: Klucel (hydroxypropylcellulose) (HPC) 91 % of control | dose: 200.0 mg/kg/injection, schedule: Q04DX002 (ip), vehicle: Klucel (hydroxypropylcellulose) (HPC) 98 % of control | dose: 400.0 mg/kg/injection, schedule: Q04DX002 (ip), vehicle: Klucel (hydroxypropylcellulose) (HPC) 102 % of control

CC(=O)NC(CSSCC(NC(C)=O)C(=O)OC(C)=O)C(=O)O (centres undefined)
inactive: dose: 25.0 mg/kg/injection, schedule: Q01DX001 (ip), vehicle: saline 102 % of control | [18] 96 % of control | [19] 93 % of control

CCN1C=C/C(=C/c2cc3scc(-c4ccccc4)[n+]3c3ccccc23)c2ccccc21
inactive: dose: 0.01 mg/kg/injection, schedule: Q04DX003 (ip), vehicle: saline with Tween-80 108 % of control | dose: 0.02 mg/kg/injection, schedule: Q04DX003 (ip), vehicle: saline with Tween-80 98 % of control | dose: 0.04 mg/kg/injection, schedule: Q04DX003 (ip), vehicle: saline with Tween-80 93 % of control
